Test results taken from patent publication US10736898B2, “Positive allosteric modulators of the muscarinic acetylcholine receptor M4” (Vanderbilt University, priority 2017, dated 2020).

Target: T1, Human M4 (Homo sapiens, UniProt P08173)
T1 construct: expressed in transfected cells
T1 sequence (P08173 1-479): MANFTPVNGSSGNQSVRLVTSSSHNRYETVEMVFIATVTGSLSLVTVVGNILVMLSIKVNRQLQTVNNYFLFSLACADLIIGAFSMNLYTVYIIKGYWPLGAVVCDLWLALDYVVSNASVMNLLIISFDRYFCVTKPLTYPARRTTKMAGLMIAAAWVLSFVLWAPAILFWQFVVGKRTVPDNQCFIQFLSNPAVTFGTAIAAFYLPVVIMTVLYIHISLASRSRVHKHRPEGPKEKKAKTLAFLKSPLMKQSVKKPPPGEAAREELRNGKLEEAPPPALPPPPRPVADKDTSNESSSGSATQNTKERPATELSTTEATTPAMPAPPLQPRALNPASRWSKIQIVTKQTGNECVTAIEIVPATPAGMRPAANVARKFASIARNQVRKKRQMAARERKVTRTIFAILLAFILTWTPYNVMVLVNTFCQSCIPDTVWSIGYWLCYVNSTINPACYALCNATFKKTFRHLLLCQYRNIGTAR
Assay: mAChR M4 cell-based functional assay (calcium flux, potentiation of EC20 acetylcholine response)
Conditions: for EC50: CHO-K1 cells with human M4 and Gqi5, increase in EC20 acetylcholine response

[1] = % ACh maximum at 30 μM, human M4

Experimental: Human M4 cDNA, along with the chimeric G protein Gqi5, were transfected into Chinese hamster ovary (CHO-K1) cells purchased from the American Type Culture Collection using commercially available Lipofectamine 2000 transfection reagent (Dalby, B. et al., Methods (2004) 33(2), 95-103). hM4-Gqi5 cells were grown in Ham's F-12 medium containing 10% heat-inactivated fetal bovine serum (FBS), 20 mM HEPES, 50 μg/mL G418 sulfate (CAS #108321-42-2), and 500 μg/mL Hygromycin B. rM4-Gqi5 cells were grown in DMEM containing 10% heat-inactivated FBS, 20 mM HEPES, 400 μg/mL G418 sulfate, and 500 μg/mL Hygromycin B.
For high throughput measurement of agonist-evoked increases in intracellular calcium, CHO-K1 cells stably expressing muscarinic receptors were plated in growth medium lacking G418 sulfate and hygromycin at 15,000 cells/20 μL/well in Greiner 384-well black-walled, tissue culture (TC)-treated, clear-bottom plates (VWR). Cells were incubated overnight at 37° C. and 5% CO2. The next day, cells were washed using an ELX 405 (BioTek) with assay buffer; the final volume was then aspirated to 20 μL. […] Dye was removed by washing with the ELX 405 and the final volume was aspirated to 20 μL. Compound master plates were formatted in an 11 point concentration-response curve (CRC) format (1:3 dilutions) in 100% DMSO with a starting concentration of 10 mM using a BRAVO liquid handler (Agilent). Test compound CRCs were then transferred to daughter plates (240 nL) using the Echo acoustic plate reformatter (Labcyte, Sunnyvale, Calif.) and then diluted into assay buffer (40 μL) to a 2× stock using a Thermo Fisher Combi (Thermo Fisher Scientific, Waltham, Mass.).
Calcium flux was measured using the Functional Drug Screening System (FDSS) 6000 or 7000 (Hamamatsu Corporation, Tokyo, Japan) as an increase in the fluorescent static ratio. Compounds were applied to cells (20 μL, 2×) using the automated system of the FDSS at 2-4 seconds into the protocol and the data were collected at 1 Hz. At 144 seconds, 10 μL of an EC20 concentration of the muscarinic receptor agonist acetylcholine was added (5×), followed by the addition of 12 μL of an EC80 concentration of acetylcholine at the 230 second time point (5×). Agonist activity was analyzed as a concentration-dependent increase in calcium mobilization upon compound addition. Positive allosteric modulator activity was analyzed as a concentration-dependent increase in the EC20 acetylcholine response. […] Antagonist activity was analyzed as a concentration-dependent decrease in the EC80 acetylcholine response. Concentration-response curves were generated using a four-parameter logistical equation in XLFit curve fitting software (IDBS, Bridgewater, N.J.) for Excel (Microsoft, Redmond, Wash.) or Prism (GraphPad Software, Inc., San Diego, Calif.).

Row | Compound | Emax at 30 µM [1] [%] | EC50 [nM] | Emax [1] [%]
1 | CCc1nc(C)c2c(n1)sc1c(N3CCC(F)(F)C3)nccc12 [Compound 35, 8-(3,3-difluoropyrrolidin-1-yl)-2-ethyl-4-methyl-pyrido[4,5]thieno[1,2-b]pyrimidine] | 96.9 | 263 | –
2 | COc1ccc(CNc2ncnc3c2sc2nc(C)nc(C)c23)cc1F [Compound 3, N-(3-fluoro-4-methoxybenzyl)-7,9-dimethylthieno[2,3-d:4,5-d′]dipyrimidin-4-amine] | 64.8 | 1160 | –
3 | CCN(CC)c1nccc2c1sc1nc(C)nc(C)c12 [Compound 24, N,N-diethyl-2,4-dimethyl-pyrido[4,5]thieno[1,2-b]pyrimidin-8-amine] | 37.7 | > 10000 | –
4 | Cc1nc(C2CC2)nc2sc3c(N4CCCCC4)nccc3c12 [Compound 37, 2-cyclopropyl-4-methyl-8-(1-piperidyl)pyrido[4,5]thieno[1,2-d]pyrimidine] | 55 | > 10000 | –
5 | Cc1nc(C)c2c(n1)sc1c(NCc3ccc(C4(O)CCC4)cc3)ncnc12 [Compound 6, 1-(4-(((7,9-dimethylthieno[2,3-d:4,5-d′]dipyrimidin-4-yl)amino)methyl)phenyl)cyclobutan-1-ol] | 81.3 | 2020 | –
6 | Cc1nc(C)c2c(n1)sc1c(N3CCOCC3)ncnc12 [Compound 9, 4-(7,9-dimethylthieno[2,3-d:4,5-d′]dipyrimidin-4-yl)morpholine] | 39.1 | 5570 | –
7 | Cc1nc(C)c2c(n1)sc1c(N3CCC(F)(F)C3)nccc12 [Compound 25, 8-(3,3-difluoropyrrolidin-1-yl)-2,4-dimethyl-pyrido[4,5]thieno[1,2-b]pyrimidine] | 94.6 | 42 | –
8 | Cc1nc(C2CC2)nc2sc3c(N4CCOCC4)nccc3c12 [Compound 30, 4-(2-cyclopropyl-4-methyl-pyrido[4,5]thieno[1,2-d]pyrimidin-8-yl)morpholine] | 74.2 | 449 | –
9 | Cc1nc(C2CC2)nc2sc3c(NCc4ccc(F)c(F)c4)nccc3c12 [Compound 29, 2-cyclopropyl-N-[(3,4-difluorophenyl)methyl]-4-methyl-pyrido[4,5]thieno[1,2-d]pyrimidin-8-amine] | 62.4 | 6690 | –
10 | Cc1nc(C)c2c(n1)sc1c(N3CC4CC4C3)ncnc12 (centres unmarked) [Compound 8, 4-(3-azabicyclo[3.1.0]hexan-3-yl)-7,9-dimethylthieno[2,3-d:4,5-d′]dipyrimidine] | 75.5 | 156 | –
11 | Cc1nc(C)c2c(n1)sc1c(N3CCCC3)nccc12 [Compound 11, 2,4-Dimethyl-8-(pyrrolidin-1-yl)pyrido[4′,3′:4,5]thieno[2,3-d]pyrimidine] | 77 | 73 | –
12 | Cc1nc(C)c2c(n1)sc1c(NCc3ccc(C(C)(C)O)cc3)ncc(C#N)c12 [Compound 46, 8-((4-(2-hydroxypropan-2-yl)benzyl)amino)-2,4-dimethylpyrido[4′,3′:4,5]thieno[2,3-d]pyrimidine-5-carbonitrile] | 66.7 | 734 | –
13 | Cc1nc(C)c2c(n1)sc1c(N3CCC(F)(F)CC3)ncnc12 [Compound 21, 4-(4,4-difluoropiperidin-1-yl)-7,9-dimethylthieno[2,3-d:4,5-d′]dipyrimidine] | 52.6 | 1410 | –
14 | Cc1nc(C)c2c(n1)sc1c(NCc3ccc(C(C)(O)C4CC4)cc3)ncnc12 (centres unmarked) [Compound 7, 1-cyclopropyl-1-(4-(((7,9-dimethylthieno[2,3-d:4,5-d′]dipyrimidin-4-yl)amino)methyl)phenyl)ethan-1-ol] | 71.2 | 2090 | –
15 | Cc1nc(C)c2c(n1)sc1c(NCc3ccc(C(C)(C)O)c(F)c3)nccc12 [Compound 31, 2-[4-[[(2,4-dimethylpyrido[4,5]thieno[1,2-b]pyrimidin-8-yl)amino]methyl]-2-fluoro-phenyl]propan-2-ol] | 85.8 | 237 | –
16 | Cc1nc(C2CC2)nc2sc3c(NCc4ccc(C(C)(C)O)c(F)c4)nccc3c12 [Compound 27, 2-[4-[[(2-cyclopropyl-4-methyl-pyrido[4,5]thieno[1,2-d]pyrimidin-8-yl)amino]methyl]-2-fluoro-phenyl]propan-2-ol] | 86.4 | 2270 | –
17 | CCc1nc(C)c2c(n1)sc1c(NCc3ccc(C(C)(C)O)cc3)nccc12 [Compound 34, 2-[4-[[(2-ethyl-4-methyl-pyrido[4,5]thieno[1,2-b]pyrimidin-8-yl)amino]methyl]phenyl]propan-2-ol] | 88.1 | 601 | –
18 | Cc1nc(C)c2c(n1)sc1c(N3CCCC3)ncnc12 [Compound 2, 7,9-dimethyl-4-(pyrrolidin-1-yl)thieno[2,3-d:4,5-d′]dipyrimidine] | 51.7 | 288 | –

Row | Compound | Emax at 30 µM [1] [%] | EC50 [nM] | Emax [1] [%]
19 | Cc1nc(C2CC2)nc2sc3c(N4CCCC4)nccc3c12 [Compound 38, 2-cyclopropyl-4-methyl-8-pyrrolidin-1-yl-pyrido[4,5]thieno[1,2-d]pyrimidine] | 65 | 1010 | –
20 | Cc1nc(C)c2c(n1)sc1c(NC3CCC3)ncc(Cl)c12 [Compound 44, 5-chloro-N-cyclobutyl-2,4-dimethyl-pyrido[4,5]thieno[1,2-b]pyrimidin-8-amine] | 60.1 | 997 | –
21 | Cc1nc(C)c2c(n1)sc1c(NCc3ccc(F)c(F)c3)ncc(Cl)c12 [Compound 43, 5-chloro-N-[(3,4-difluorophenyl)methyl]-2,4-dimethyl-pyrido[4,5]thieno[1,2-b]pyrimidin-8-amine] | 50.3 | 4350 | –
22 | [2H]C([2H])(Nc1ncnc2c1sc1nc(C)nc(C)c12)c1ccc(C(C)(C)O)cc1 [Compound 5, 2-(4-(((7,9-dimethylthieno[2,3-d:4,5-d′]dipyrimidin-4-yl)amino)methyl-d2)phenyl)propan-2-ol] | 79.3 | 1370 | –
23 | 5-chloro-2,4-dimethyl-8-pyrrolidin-1-yl-pyrido[4,5]thieno[1,2-b]pyrimidine [Compound 45] | – | 693 | 60.9
24 | Cc1nc(C)c2c(n1)sc1c(NCc3ccc(C(C)(C)O)cc3)ncc(Cl)c12 [Compound 41, 2-(4-(((5-chloro-2,4-dimethylpyrido[4′,3′:4,5]thieno[2,3-d]pyrimidin-8-yl)amino)methyl)phenyl)propan-2-ol] | 91.9 | 3300 | –
25 | Cc1nc(C)c2c(n1)sc1c(N3CCC(F)(F)C3)ncnc12 [Compound 18, 4-(3,3-difluoropyrrolidin-1-yl)-7,9-dimethylthieno[2,3-d:4,5-d′]dipyrimidine] | 76.9 | 635 | –
26 | CCc1nc(C)c2c(n1)sc1c(NCc3ccc(OC)c(F)c3)nccc12 [Compound 33, 2-ethyl-N-[(3-fluoro-4-methoxy-phenyl)methyl]-4-methyl-pyrido[4,5]thieno[1,2-b]pyrimidin-8-amine] | 87.4 | 1330 | –
27 | Cc1nc(C2CC2)nc2sc3c(NC4CCCC4)nccc3c12 [Compound 39, N-cyclopentyl-2-cyclopropyl-4-methyl-pyrido[4,5]thieno[1,2-d]pyrimidin-8-amine] | 69 | 1860 | –
28 | Cc1nc(C)c2c(n1)sc1c(NCc3ccc(C(C)(C)O)cc3)nccc12 [Compound 14, 2-(4-(((2,4-dimethylpyrido[4′,3′:4,5]thieno[2,3-d]pyrimidin-8-yl)amino)methyl)phenyl)propan-2-ol] | 80.5 | – | –
29 | Cc1nc(C)c2c(n1)sc1c(N3CC[C@H](F)C3)ncnc12 [Compound 19, (S)-4-(3-fluoropyrrolidin-1-yl)-7,9-dimethylthieno[2,3-d:4,5-d′]dipyrimidine] | 62.4 | 1060 | –
30 | Cc1nc(C)c2c(n1)sc1c(NC3CCCC3)ncnc12 [Compound 4, N-cyclopentyl-7,9-dimethylthieno[2,3-d:4,5-d′]dipyrimidin-4-amine] | 55.5 | 557 | –
31 | Cc1nc(C)c2c(n1)sc1c(N3CC4(C3)CC(F)(F)C4)ncnc12 [Compound 17, 4-(6,6-difluoro-2-azaspiro[3.3]heptan-2-yl)-7,9-dimethylthieno[2,3-d:4,5-d′]dipyrimidine] | 42.9 | 185 | –
32 | Cc1nc(C)c2c(n1)sc1c(NC3CCCC3)nccc12 [Compound 15, N-cyclopentyl-2,4-dimethylpyrido[4′,3′:4,5]thieno[2,3-d]pyrimidin-8-amine] | 73.3 | 134 | –
33 | Cc1nc(C2CC2)nc2sc3c(NC4CC4)nccc3c12 [Compound 32, N,2-dicyclopropyl-4-methyl-pyrido[4,5]thieno[1,2-d]pyrimidin-8-amine] | 103 | 129 | –
34 | Cc1nc(C)c2c(n1)sc1c(N3CCCCC3)nccc12 [Compound 12, 2,4-dimethyl-8-(1-piperidyl)pyrido[4′,3′:4,5]thieno[2,3-d]pyrimidine] | 57.9 | 73 | –
35 | Cc1nc(C2CC2)nc2sc3c(N4CCC(F)CC4)nccc3c12 [Compound 40, 2-cyclopropyl-8-(4-fluoro-1-piperidyl)-4-methyl-pyrido[4,5]thieno[1,2-d]pyrimidine] | 73 | 1470 | –
36 | Cc1nc(C)c2c(n1)sc1c(N3CC[C@@H](F)C3)ncnc12 [Compound 20, (R)-4-(3-fluoropyrrolidin-1-yl)-7,9-dimethylthieno[2,3-d:4,5-d′]dipyrimidine] | 71.5 | 791 | –
